Experimental data as given in publication PMC4506530, “Small-Molecule Inhibitors That Target Protein–Protein Interactions in the RAD51 Family of Recombinases” (Chemmedchem, 2014).
Entries after “also recorded” stand apart in the source; their conditions may differ. Read-outs that look alike come from different tables or passages of the source.

Experiments:
HumRADA2 [1] = target: T1, HumRADA2 (Pyrococcus furiosus, UniProt O74036, D220A/DEL288-314/E219S/I169M/K221M/V202Y/Y201A); conditions: previously published fragment screening, humanised RadA, cited from earlier work
HumRADA2 [2] = target: T1, HumRADA2; assay: Isothermal titration calorimetry (ITC), direct binding to HumRADA2; conditions: for -TDS / DG / DH: ITC thermodynamic binding profile, Table S1; for LLE: LLE=pKD−clog P, clog P calculated with Instant JChem (ChemAxon)
Excerpt: We previously published fragment-screening results using a humanised RAD51 surrogate from Pyrococcus furiosus, which we refer to as HumRADA2 (previously referred to as MAYSAM RadA).[23] In this surrogate protein, the N-terminal domain with the oligomerisation sequence was removed to monomerise the protein and expose the FxxA binding site for screening, and six surface residues were mutated around the Phe pocket in order to humanise the protein in this region.
(§1) Supplemental Experimental Procedures
(§2) C-terminal ATPase domain of P. furiosus RadA (residues 108–349, with deletion of the “L2” loop residues 288–314) was expressed in E.coli and purified as described before using ion-exchange ad size exclusion chromatographies.[1] Purified protein was concentrated to 0.5 mM, flash frozen in liquid nitrogen and stored at -80C. Protein concentration was determined by measuring absorbance at 280 nm in 6M GndHCl and using calculated absorption coefficient […]
(§3) Isothermal Titration Calorimetry
(§4) ITC experiments were performed at 25°C on a MicroCal ITC-200 (GE Healthcare).
(§5) HumRadA2 (humanized RadA) (600 µM in 20 mM MES pH 6.0 with 100 mM NaCl and 0.5 mM EDTA was diluted with Tris buffer (200 mM, pH 7.5 with 100 mM NaCl), and DMSO was added to match to the ligand solution. In titrations with ATP, 5 mM MgCl2 was included in the ligand buffer and the protein buffer. Compounds in DMSO were diluted into the same Tris buffer to give a final concentration of 0.6–10 mM ligand in 10% DMSO and Tris buffer. Care was taken to ensure that the DMSO concentrations in the protein and ligand solutions were well matched so as to avoid artefacts arising from heats of dilution of DMSO. In a typical experiment, protein (60 µM) was loaded in the sample cell, and 16 injections (2.4 µL) of 4.8 s duration were made at 80 s intervals from a syringe loaded with ligand (0.6–10 mM) and rotating at 1000 rpm. In all titrations, an initial injection of ligand (0.4 µL) was made and discarded during data analysis. Control titrations of ligand to buffer were performed and […]
(§6) The thermodynamic parameters were obtained by fitting the data to a single-site-binding model by using Origin software and fixing the stoichiometry as 1.0 for […]

HumRADA2 [3] = target: T1, HumRADA2; assay: Competitive ITC experiments to HumRADA2 (ligand titrated in the presence of compound); format: binding; conditions: protein pre-incubated with compound (200 μM 5 c)
Method: The KD measurement of each ligand was then repeated, but in the presence of 200 μM 5 c (bottom row titrations, Figure 2 B).
as §1, §2, §3, §4, §5, §6

wild-type RadA = assay: ITC, direct binding to unhumanised wild-type RadA; parameters: species or system Pyrococcus furiosus; conditions: unhumanised wild-type RadA protein
[4] = tryptophan ester series (Table 1)
[5] = substituted tryptamine series (Table 2)

| Molecule | Kd (HumRADA2 [1]; read-out: KD) [µM] | Kd (HumRADA2 [1]) [µM] | -TDS (HumRADA2 [2]) [kcal/mol] | DG (HumRADA2 [2]) [kcal/mol] | DH (HumRADA2 [2]) [kcal/mol] | LLE (HumRADA2 [2]; [4]) | LE (ligand efficiency) (HumRADA2 [2]; [4]) [kcal mol−1 per heavy atom] | competition with binding of the RadA self-oligomerisation peptide (HumRADA2 [3]) | Kd (HumRADA2 [2]) [µM] | other results |
| --- | --- | --- | --- | --- | --- | --- | --- | --- | --- | --- |
| COC(=O)c1cccc2[nH]ccc12 [4-methyl ester indole] | 1300 | – | – | – | – | – | – | – | – | – |
| COC(=O)[C@@H](N)Cc1c[nH]c2ccccc12 [compound 1, L-tryptophan methyl ester] | – | 570 | 2.0 | -4.4 | -6.4 | 1.9 | 0.28 | – | – | – |
| Ac-FHTA-NH2 [reference compound] | 250 | – | – | – | – | – | – | – | – | Kd (HumRADA2 [2]; ITC against apo protein, in the absence of 5 c, read-out: KD): 250 µM |
| c1ccc2[nH]ncc2c1 [indazole] | – | 1000 | – | – | – | – | – | – | – | – |
| O=S(=O)(NCCc1c[nH]c2ccccc12)c1cc(Br)c(Cl)s1 [7 m] | – | – | -2.7 | -8.1 | -5.4 | – | – | blockage of the binding | 1.3 ± 0.1 | LLE (HumRADA2 [2]; [5]): 1.5; LE (ligand efficiency) (HumRADA2 [2]; [5]): 0.36 kcal mol−1 per heavy atom |
| Cl.N[C@@H](Cc1c[nH]c2ccccc12)C(=O)OCCc1ccccc1 [5 c] | – | – | -3.3 | -6.0 | -2.7 | 1.1 | 0.26 | competes with and blocks the binding; also recorded: shows competition with the FxxA binding site | 35 ± 4 | binding to wild-type RadA (wild-type RadA): no binding; competition with binding of Ac-FHTA-NH2 tetrapeptide (HumRADA2 [3]): competes with and blocks the binding; also recorded: shows competition with the FxxA binding site; effect on binding of ATP (HumRADA2 [3]): not affected; also recorded: not the ATP binding site |
